The results in this text go back to US9108930B2, “N1- and N2-carbamoyl-1,2,3-triazole serine hydrolase inhibitors and methods” (The Scripps Research Institute, priority 2011, dated 2015).

For experiment [1], the target named is T1, DAGLB (Mus musculus, UniProt Q91WC9).
T1 sequence (Q91WC9 1-669): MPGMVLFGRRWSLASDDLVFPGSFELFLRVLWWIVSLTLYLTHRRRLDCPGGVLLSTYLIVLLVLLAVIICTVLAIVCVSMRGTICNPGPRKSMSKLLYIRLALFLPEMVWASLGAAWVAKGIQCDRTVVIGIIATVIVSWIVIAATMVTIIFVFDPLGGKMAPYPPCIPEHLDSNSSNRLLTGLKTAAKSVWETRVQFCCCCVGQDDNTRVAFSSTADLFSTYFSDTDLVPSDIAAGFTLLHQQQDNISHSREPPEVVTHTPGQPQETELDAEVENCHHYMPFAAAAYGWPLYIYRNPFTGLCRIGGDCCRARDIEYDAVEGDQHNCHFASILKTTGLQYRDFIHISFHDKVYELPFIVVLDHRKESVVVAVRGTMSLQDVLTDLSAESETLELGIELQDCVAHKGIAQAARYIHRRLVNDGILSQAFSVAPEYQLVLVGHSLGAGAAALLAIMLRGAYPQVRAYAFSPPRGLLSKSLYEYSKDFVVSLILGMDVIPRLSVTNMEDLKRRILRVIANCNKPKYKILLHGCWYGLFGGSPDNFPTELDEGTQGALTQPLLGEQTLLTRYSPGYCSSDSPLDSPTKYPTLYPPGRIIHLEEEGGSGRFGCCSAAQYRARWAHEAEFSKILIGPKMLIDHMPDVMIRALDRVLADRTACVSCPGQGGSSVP
The experiment can be described thus: ABPP-SILAC in Neuro2A cells. The conditions noted are these: about 4 hours; 25 nM KT172, 50 nM KT109.

Experiment [2] has as its target T2, APEH (Mus musculus, UniProt Q8R146).
T2 sequence (Q8R146 1-732): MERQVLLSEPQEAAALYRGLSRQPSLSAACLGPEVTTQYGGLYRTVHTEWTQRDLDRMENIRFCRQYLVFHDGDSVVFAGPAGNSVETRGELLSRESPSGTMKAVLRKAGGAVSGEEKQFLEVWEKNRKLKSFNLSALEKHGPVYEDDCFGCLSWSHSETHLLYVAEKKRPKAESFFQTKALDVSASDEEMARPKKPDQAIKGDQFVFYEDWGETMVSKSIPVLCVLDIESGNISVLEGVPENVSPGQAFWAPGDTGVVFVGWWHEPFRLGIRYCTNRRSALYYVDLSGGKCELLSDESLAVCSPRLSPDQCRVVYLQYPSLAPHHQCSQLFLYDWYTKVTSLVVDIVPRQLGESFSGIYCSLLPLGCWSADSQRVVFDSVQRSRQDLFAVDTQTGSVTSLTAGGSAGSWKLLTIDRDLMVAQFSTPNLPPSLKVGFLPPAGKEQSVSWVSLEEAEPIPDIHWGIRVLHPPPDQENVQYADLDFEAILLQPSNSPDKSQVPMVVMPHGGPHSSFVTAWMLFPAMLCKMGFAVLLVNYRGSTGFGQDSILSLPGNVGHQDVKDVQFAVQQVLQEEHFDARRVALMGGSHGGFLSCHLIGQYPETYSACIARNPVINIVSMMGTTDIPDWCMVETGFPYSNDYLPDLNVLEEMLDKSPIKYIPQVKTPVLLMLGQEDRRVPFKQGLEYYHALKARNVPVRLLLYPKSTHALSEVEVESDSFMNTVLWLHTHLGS
Nature of the experiment: Fluorogenic APEH substrate assay on brain proteomes of treated mice. It is filed as in vivo. The conditions noted are these: 0.4 mg/kg; brain proteome. The protocol:
APEH activity assay was performed using fluorogenic substrate N-Acetyl-L-alanine p-nitroanilide.
Soluble brain proteomes (100 μL of 1 mg/mL protein) from AA74-1 (or vehicle)-injected mice were treated in a 96-well plate with N-acetyl-L-alanine 4-nitroanilide (100 μM final concentration) and the samples were incubated for 2 h at 37° C. Relative absorbance was measured with a plate reader at […]. Inhibition curves were generated using PRISM® software (GraphPad). Calculated values represent means±s.e.m for three independent experiments.

Take `O=C(N1CCCCC1Cc1ccccc1)n1cc(-c2ccc(-c3ccccc3)cc2)nn1` (centres unmarked) [KT109]: the DAGLB activity blocked result in experiment [1] was “approximately 90%”.

As to `CC(C)CC(O)(CC(C)C)c1cnn(C(=O)N2CCCC2)n1` [AA74-1], the “APEH inhibition by substrate assay” value in experiment [2] is recorded as “Complete inhibition of APEH”.
